Measurements as given in publication PMC8041284, “Tunable Methacrylamides for Covalent Ligand Directed Release Chemistry” (Journal of the American Chemical Society, 2021).
Read-outs that look alike come from different tables or passages of the source.

Biological target: BTK (Homo sapiens, UniProt Q06187)
[1] = 0.75 uM BTK, […] probe 3l, 15 min preincubation, 10 µM, inhibitor, BTK inhibition (%)
[2] = 0.75 uM BTK, […] probe 3l, 15 min preincubation; 10 µM; inhibitor

Chain of BTK (Q06187 402-655 limits assumed): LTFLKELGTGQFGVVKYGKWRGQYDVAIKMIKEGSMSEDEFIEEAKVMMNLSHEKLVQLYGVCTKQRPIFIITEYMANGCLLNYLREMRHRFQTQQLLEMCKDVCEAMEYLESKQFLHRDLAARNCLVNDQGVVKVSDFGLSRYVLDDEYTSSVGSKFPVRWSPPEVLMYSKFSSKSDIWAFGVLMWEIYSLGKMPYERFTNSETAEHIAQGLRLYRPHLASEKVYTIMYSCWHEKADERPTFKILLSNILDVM

Compound: Cc1c(O)c(=O)ccn1C [PCM-0090746]
- BTK inhibition (%) [1]: -11.9%

Compound: C[C@H]1CC[C@]2(NC1)O[C@H]1C[C@H]3[C@@H]4CC[C@H]5C[C@@H](O)CC[C@]5(C)[C@H]4CC[C@]3(C)[C@H]1[C@@H]2C [PCM-0216325]
- BTK inhibition (%) [2]: 13.9%

Compound: COc1cc([C@H]2OC[C@@H]3[C@@H]2CO[C@H]3c2cc(OC)c(O[C@@H]3O[C@H](CO)[C@@H](O)[C@H](O)[C@H]3O)c(OC)c2)cc(OC)c1O[C@@H]1O[C@H](CO)[C@@H](O)[C@H](O)[C@H]1O [PCM-0216398]
- BTK inhibition (%) [2]: -10%

Compound: CCOC(=O)C1=C[C@@H](OC(CC)CC)[C@H](NC(C)=O)[C@@H](N)C1 [PCM-0095436]
- BTK inhibition (%) [2]: -10.2%

Compound: ClC(Cl)=C(c1ccc(Cl)cc1)c1ccc(Cl)cc1 [PCM-0216164]
- BTK inhibition (%) [2]: 10.8%

Compound: COC(=O)C1=C(C)NC(C)=C(C(=O)OCCN2CCN(C(c3ccccc3)c3ccccc3)CC2)C1c1cccc([N+](=O)[O-])c1 (stereo not shown) [PCM-0090281]
- BTK inhibition (%) [2]: 34.2%

Compound: CN1C2=C3N=c4ccccc4=C3CCN2C(=O)c2ccccc21 [PCM-0215051]
- BTK inhibition (%) [1]: 4.7%

Compound: O=C(/C=C/c1ccccc1)OC[C@H]1O[C@@H](O[C@@H]2OC=C[C@H]3[C@H](O)[C@@H]4O[C@]4(CO)[C@@H]23)[C@H](O)[C@@H](O)[C@@H]1O [PCM-0214975]
- BTK inhibition (%) [2]: -1.6%

Compound: O=C/C=C/c1ccccc1 [PCM-0215920]
- BTK inhibition (%) [2]: 3.1%

Compound: Cc1c([C@H](C)[C@@H]2NC[C@@H](C)C[C@H]2O)ccc2c1C[C@H]1[C@H]2CC=C2C[C@@H](O)CC[C@@]21C [PCM-0214977]
- BTK inhibition (%) (10 µM; inhibitor): -2.3%

Compound: CC(C(=O)O)c1cccc(Oc2ccccc2)c1 (stereo not shown) [PCM-0086452]
- BTK inhibition (%) [1]: -45.1%

Compound: CN[C@H]1C[C@@H](N)[C@H](O)[C@@H](O[C@@H]2O[C@H](CO)[C@H](O)[C@@H]3OC4(O[C@H]23)O[C@H]([C@@H](N)CO)[C@H](O)[C@H](O)[C@H]4O)[C@@H]1O (stereo partly shown) [PCM-0095389]
- BTK inhibition (%) [2]: 0%

Compound: Cc1ccccc1C(=O)Nc1ccc(C(=O)N2CCCC(N(C)C)c3ccccc32)cc1 (stereo not shown) [PCM-0095424]
- BTK inhibition (%) [1]: 70%

Compound: c1cc2c(cc1[C@H]1OC[C@H]3[C@@H]1CO[C@@H]3c1ccc3c(c1)OCO3)OCO2 [PCM-0094427]
- BTK inhibition (%) [2]: -24.1%

Compound: CC(=O)N1C[C@H](O)C[C@H]1C(=O)O [PCM-0215090]
- BTK inhibition (%) [2]: 8.6%

Compound: CC1=C[C@]23C(=O)[C@@H](C=C(CO)[C@@H](O)[C@]2(O)[C@H]1O)[C@H]1[C@@H](C[C@H]3C)C1(C)C [PCM-0216393]
- BTK inhibition (%) [2]: -3.1%

Compound: CC(=O)OC1CN2CCC1CC2 (stereo not shown) [PCM-0215275]
- BTK inhibition (%) [2]: 4.7%

Compound: CN1CC=C(c2ccccc2)CC1 [PCM-0214851]
- BTK inhibition (%) (10 µM; inhibitor): 3.1%

Compound: Cc1cc(C)nc(NS(=O)(=O)c2ccc(N)cc2)n1 [PCM-0216008]
- BTK inhibition (%) [1]: 11.7%

Compound: C=C[C@]12CN(C)[C@@H]3[C@H]4CO[C@H](C[C@H]41)[C@]1(C(=O)Nc4ccccc41)[C@@H]32 [PCM-0216528]
- BTK inhibition (%) (10 µM; inhibitor): -0.8%

Compound: COc1ccc2[nH]c([S@@+]([O-])Cc3ncc(C)c(OC)c3C)nc2c1 [PCM-0214815]
- BTK inhibition (%) [1]: -10.9%

Compound: CCN(CC)CCOC(=O)C(O)(c1ccccc1)c1ccccc1 [PCM-0214873]
- BTK inhibition (%) [2]: 8.6%

Compound: C=C[C@]1(C)C[C@@H](OC(=O)CSCCN(CC)CC)[C@]2(C)[C@H](C)CC[C@]3(CCC(=O)[C@H]32)[C@@H](C)[C@@H]1O [PCM-0215106]
- BTK inhibition (%) [1]: -8.5%

Compound: O=C1O[C@H]([C@@H](O)CO)C(O)=C1O [PCM-0085940]
- BTK inhibition (%) [1]: 5.4%

Compound: C=C1[C@H](CO)[C@@H](O)C[C@@H]1n1cnc2c(=O)[nH]c(N)nc21 [PCM-0216093]
- BTK inhibition (%) [1]: 11%

Compound: CN[C@H]1[C@H](O)[C@H](O[C@@H]2[C@@H](O)[C@H](O[C@H]3O[C@H](C(C)O)[C@@H](O)[C@H](O)[C@H]3N)[C@@H](N)C[C@H]2N)OC[C@@]1(C)O (stereo partly shown) [PCM-0215175]
- BTK inhibition (%) (10 µM; inhibitor): 6%

Compound: CN1[C@@H]2CC[C@H]1CC(OC(=O)c1c[nH]c3ccccc13)C2 (stereo partly shown) [PCM-0216191]
- BTK inhibition (%) [1]: -12.4%

Compound: COc1ccc2c(c1)[nH]c1c(C)nccc12 [PCM-0088555]
- BTK inhibition (%) [2]: -17.1%

Compound: COC(=O)Nc1nc2ccccc2[nH]1 [PCM-0214885]
- BTK inhibition (%) [2]: -9.3%

Compound: CC[N+](C)(CC)CCOC(=O)C(O)(c1ccccc1)c1ccccc1 [PCM-0214829]
- BTK inhibition (%) [2]: -19.5%

Compound: C[C@@H]1CC[C@@]2(OC1)O[C@H]1C[C@H]3[C@@H]4CC=C5C[C@@H](O[C@@H]6O[C@H](CO)[C@@H](O[C@@H]7O[C@@H](C)[C@H](O)[C@@H](O)[C@H]7O)[C@H](O)[C@H]6O[C@@H]6O[C@@H](C)[C@H](O)[C@@H](O)[C@H]6O)CC[C@]5(C)[C@H]4CC[C@]3(C)[C@H]1[C@@H]2C [PCM-0214660]
- BTK inhibition (%) [2]: 38.1%

Compound: C[C@H](CCC(=O)NCCS(=O)(=O)O)[C@H]1CC[C@H]2[C@@H]3[C@@H](O)C[C@@H]4C[C@H](O)CC[C@]4(C)[C@H]3CC[C@]12C [PCM-0214942]
- BTK inhibition (%) [1]: 4.7%

Compound: CC(=O)Oc1ccccc1C(=O)O [PCM-0214911]
- BTK inhibition (%) [1]: 1.6%

Compound: CN1C(=O)[C@@]23C[C@]4([C@]56C[C@@]78SS[C@@](CO)(C(=O)N7[C@H]5Nc5ccccc56)N(C)C8=O)c5ccccc5N[C@@H]4N2C(=O)[C@]1(CO)SS3 [PCM-0215602]
- BTK inhibition (%) (10 µM; inhibitor): 5.4%

Compound: Cn1c(CCCC(=O)O)nc2cc(N(CCCl)CCCl)ccc21 [PCM-0065281]
- BTK inhibition (%) [2]: -3.9%

Compound: CN(C)C(=O)Oc1cccc([N+](C)(C)C)c1 [PCM-0064762]
- BTK inhibition (%) [2]: -7.7%

Compound: COc1ccc2[nH]c([S@@+]([O-])Cc3ncc(C)c(OC)c3C)nc2c1 [PCM-0214571]
- BTK inhibition (%) [1]: -13.2%

Compound: CC(=O)O[C@H]1C[C@@H]2CC[C@@H]3[C@H](CC[C@@]4(C)[C@H]3C[C@H]([N+]3(C)CCCCC3)[C@@H]4OC(C)=O)[C@@]2(C)C[C@@H]1N1CCCCC1 [PCM-0214623]
- BTK inhibition (%) [2]: -6.2%

Compound: CC1=C(O)C(=O)C=C2C1=CC=C1[C@@]2(C)CC[C@@]2(C)[C@@H]3C[C@](C)(C(=O)O)CC[C@]3(C)CC[C@]12C [PCM-0214611]
- BTK inhibition (%) [2]: 67.7%

Compound: CN1[C@@H]2CC[C@H]1CC(OC(=O)[C@H](CO)c1ccccc1)C2 (stereo partly shown) [PCM-0095561]
- BTK inhibition (%) [2]: -14.8%

Compound: C/C=C\c1cc(OC)c(OC)cc1OC [PCM-0216406]
- BTK inhibition (%) (10 µM; inhibitor): -3.9%

Compound: C[C@H]1CC[C@@H]2N(C1)C[C@H]1[C@@H]3C[C@H]4[C@@H](CC(=O)[C@H]5C[C@@H](O)CC[C@@]54C)[C@@H]3CC[C@H]1[C@]2(C)O [PCM-0216485]
- BTK inhibition (%) (10 µM; inhibitor): -13.9%

Compound: C[N+]1(C)[C@@H]2CC(OC(=O)[C@H](CO)c3ccccc3)C[C@H]1[C@@H]1O[C@@H]12 (stereo partly shown) [PCM-0095246]
- BTK inhibition (%) [2]: 10.9%

Compound: CN1CCc2cc3c(cc2[C@H]1[C@@H]1OC(=O)c2c1ccc1c2OCO1)OCO3 [PCM-0095582]
- BTK inhibition (%) (10 µM; inhibitor): -0.8%

Compound: CO[C@H]1/C=C/O[C@@]2(C)Oc3c(C)c(O)c4c(O)c(c(/C=N/N5CCN(C)CC5)c(O)c4c3C2=O)NC(=O)/C(C)=C\C=C\[C@H](C)[C@H](O)[C@@H](C)[C@@H](O)[C@@H](C)[C@H](OC(C)=O)[C@@H]1C [PCM-0086069]
- BTK inhibition (%) [2]: 32.7%

Compound: CC[C@H]1OC(=O)[C@H](C)[C@@H](O[C@H]2C[C@@](C)(OC)[C@@H](O)[C@H](C)O2)[C@H](C)[C@@H](O[C@@H]2O[C@H](C)C[C@H](N(C)C)[C@H]2O)[C@](C)(O)C[C@@H](C)CN(C)[C@H](C)[C@@H](O)[C@]1(C)O [PCM-0216649]
- BTK inhibition (%) [1]: 11.7%

Compound: O=C(OC1C[C@H]2CC[C@@H](C1)[N+]21CCCC1)C(O)(c1ccccc1)c1ccccc1 (stereo partly shown) [PCM-0095326]
- BTK inhibition (%) [2]: 7%

Compound: CCCC(CCC)C(=O)O [PCM-0215159]
- BTK inhibition (%) [1]: 6.9%

Compound: CC1(C)[C@@H](O[C@H]2O[C@H](C(=O)O)[C@@H](O)[C@H](O)[C@H]2O[C@@H]2O[C@H](C(=O)O)[C@@H](O)[C@H](O)[C@H]2O)CC[C@]2(C)[C@H]3C(=O)C=C4[C@@H]5C[C@@](C)(C(=O)O)CC[C@]5(C)CC[C@@]4(C)[C@]3(C)CC[C@@H]12 [PCM-0214876]
- BTK inhibition (%) [1]: 35.9%

Compound: COc1ccc2c(c1)c(CC(=O)O)c(C)n2C(=O)c1ccc(Cl)cc1 [PCM-0065532]
- BTK inhibition (%) [1]: 5.5%

Compound: C=C1[C@H](CO)[C@@H](O)C[C@@H]1n1cnc2c(=O)[nH]c(N)nc21 [PCM-0095007]
- BTK inhibition (%) [1]: -4.7%

Compound: CCN(Cc1ccc(Cl)nc1)/C(=C/[N+](=O)[O-])NC [PCM-0214807]
- BTK inhibition (%) [2]: 7%

Compound: COP(=O)(OC)SCn1c(=O)oc2cc(Cl)cnc21 [PCM-0215999]
- BTK inhibition (%) (10 µM; inhibitor): -2.3%

Compound: CC(C)C1=CC(=O)[C@@](C)([C@H]2[C@H](O)C[C@@]3(C)[C@@H]4CC=C5[C@@H](CC[C@@H](O[C@@H]6OC[C@@H](O)[C@H](O)[C@H]6O[C@@H]6O[C@@H](C)[C@H](O)[C@@H](O)[C@H]6O)C5(C)C)[C@]4(C)C(=O)C[C@]23C)O1 [PCM-0216419]
- BTK inhibition (%) (10 µM; inhibitor): 2.3%

Compound: CO/N=C(\C(=O)N[C@@H]1C(=O)N2C(C(=O)O)=C(CSC(=O)c3ccco3)CS[C@H]12)c1csc(N)n1 [PCM-0216235]
- BTK inhibition (%) [1]: 0.8%

Compound: COC1=C[C@@H]2[C@@H]3Cc4ccc(OC)c(O)c4[C@]2(CCN3C)CC1=O [PCM-0090951]
- BTK inhibition (%) (10 µM, inhibitor): 14.8%

Compound: O=P1(N(CCCl)CCCl)NCCCO1 (stereo not shown) [PCM-0064707]
- BTK inhibition (%) [2]: -19.3%

Compound: CCC(=O)NS(=O)(=O)c1ccc(-c2c(-c3ccccc3)noc2C)cc1 [PCM-0214825]
- BTK inhibition (%) [1]: 5.5%

Compound: CC(=O)O[C@H]1C[C@@H]2CC[C@@H]3[C@H](CC[C@@]4(C)[C@H]3C[C@H]([N+]3(C)CCCCC3)[C@@H]4OC(C)=O)[C@@]2(C)C[C@@H]1[N+]1(C)CCCCC1 [PCM-0214687]
- BTK inhibition (%) [2]: -21%

Compound: Nc1nc2[nH]cc(CCc3ccc(C(=O)N[C@@H](CCC(=O)O)C(=O)O)cc3)c2c(=O)[nH]1 [PCM-0215446]
- BTK inhibition (%) [1]: -10.2%

Compound: COc1ccc(C=O)cc1O [PCM-0215127]
- BTK inhibition (%) (10 µM; inhibitor): -7.8%

Compound: CN1CCC(c2c[nH]c3ccc(O)cc23)CC1 [PCM-0064588]
- BTK inhibition (%) (10 µM; inhibitor): 16.3%

Compound: COC(=O)C1=CCCN(C)C1 [PCM-0003961]
- BTK inhibition (%) (10 µM; inhibitor): -10.1%

Compound: N#C[C@H](O[C@@H]1O[C@H](CO[C@@H]2O[C@H](CO)[C@@H](O)[C@H](O)[C@H]2O)[C@@H](O)[C@H](O)[C@H]1O)c1ccccc1 [PCM-0094813]
- BTK inhibition (%) (10 µM; inhibitor): -12.5%
